Reference: paper PMC8721105, “Novel Trypanocidal Inhibitors that Block Glycosome Biogenesis by Targeting PEX3–PEX19 Interaction” (Frontiers in Cell and Developmental Biology, 2021)
Several values for one entry are separate records, joined by “and”; a condition that tells them apart may be missing. Identical values can stand only once. Entries after “also recorded” stand apart in the source; their conditions may differ. Like-named read-outs stand apart in the source and are kept apart here.

Experiments:
[1] = molecular target: TbPEX3–TbPEX19 interaction (Trypanosoma brucei brucei, UniProt Q383Q3); experiment: AlphaScreen TbPEX3–TbPEX19 inhibitor screening and dose response; format: binding
Experimental: The above solutions were prepared in the reaction buffer [0.5% BSA v/v, 0.05% Tween 80 v/v, 0.2 mM DTT, PBS (pH7.4)] on the day of assay, diluting the compounds from 1 mM stocks in DMSO. Compounds were incubated with the proteins for 30 min at room temperature (RT). Five microliters of AlphaScreen Nickel-chelate acceptor beads (cat. no. 6760619C, PerkinElmer®) and AlphaScreen Glutathione donor beads (cat. no. 6765300, PerkinElmer®) were distributed to the mixture consecutively, with a 15-min interval. The complete 25-μl reaction solutions were incubated for 45 min at RT in the dark, and Alpha signals were captured with Cytation 5 plate reader (BioTek®) with the gain value set at 180. Schematic representation of the experiment setup of the high-throughput screening assays was prepared with BioRender.com.
Following initial hit selection, 10 μM of drugs were tested with GST-His (54 nM) and TbPEX19/TbPEX3 (5 nM) in smaller scale, and the level of signal was normalized (in %) and compared.

[2] = test system: GST-TbPEX3d44; experiment: NMR saturation transfer difference (STD) with GST-TbPEX3; format: binding, Trypanosoma brucei; conditions: for STD NMR effect with GST-TbPEX3: 10 μM protein, 300 µM ligand; for Target protein (NMR analysis): protein assigned as target, GST-TbPEX3, TbPEX19-His and GST-His tested
Experimental: (§1) NMR saturation transfer difference (STD) experiments ([Mayer and Meyer, 1999]) were carried out on a Bruker AVIII 600-MHz spectrometer equipped with a cryoprobe and a SampleJet auto sampler. One-dimensional (1D) and STD spectra were acquired at 298 K. Compounds were dissolved in DMSO-d6 to a final concentration of 50 mM. STD experiments with GST-TbPEX3, TbPEX19-His, and GST-His were performed in PBS (pH 7.4), 10% D2O at a protein concentration of 10 μM, and a ligand concentration of 300 µM. Saturation time and interscan delay within STD experiments were set to 2 and 2.5 s, respectively.

[3] = molecular target: T1, GST-His (Schistosoma japonicum, UniProt P08515); experiment: NMR saturation transfer difference (STD) with GST-His control; format: binding; conditions: 10 μM protein, 300 µM ligand
T1 construct: made in house; host or cells: E. coli BL21(DE3)
Experimental: as §1

[4] = test system: T. brucei BSF427; experiment: T. brucei cell viability, resazurin-based assay; set-up: species or system Trypanosoma brucei; conditions: BSF427, 3 days of incubation, resazurin, read-out: T. brucei toxicity (EC50)
Experimental: (§2) BSF strain Lister 427 (termed hereafter as BSF427) and cell line 90-13 (stably expressing Tet repressor) were used in this study. BSF cells were grown in HMI-11 medium and maintained in logarithmic phase [below 2 × 10^6 cells/ml as described in [Kalel et al. (2019)]]. Genomically integrated stable transfections were performed with NotI-linearized plasmid constructs (pGN1-TbPEX11), which integrate into the spacer region of the ribosomal RNA repeat locus in the genome of cell line 90-13, and the clones were selected using blasticidin as described previously ([Kalel et al., 2015]). Expression of TbPEX11-GFP was confirmed with fluorescence microscopy following induction tests (data not shown) with a serial dilution of tetracycline, and minimal concentration (5 ng/ml) of tetracycline was used to achieve expression of the protein in more than 80% of the cells.
T. brucei BSF427 and compound dilutions were mixed in 1 : 1 (v/v) ratio to total volume of 200 μl, to reach final concentrations of 2 × 10^3 cells/ml and 0.19–100 μM of inhibitors, in quadruplicates in 96-well plates. Culture medium with no cells was used as negative control and cultures without presence of compounds as positive control representing normal rate of cell growth. Cells were grown at 37°C in an incubator with humidified air containing 5% CO2 for 3 days. Cell viabilities were measured quantitatively using resazurin dye, by adding 25-µl resazurin (0.1 mg/ml in HBSS) to each well, and the mixture incubated for 6 h in the incubator. Fluorescence emission was detected at 570 and 585 nm after excitation at 530 nm, and fluorescence at 570 nm was subtracted from 585 nm. The inhibition curves were fitted with normalized fluorescence signal (in percentage) against concentration of compounds in Log10 scale using GraphPad Prism, and best fit was used for EC50 estimation. Chemical structures were drawn with ChemDraw 20.0.

[5] = test system: T. brucei bloodstream form parasites; experiment: Immunofluorescence microscopy of glycosomal aldolase localization; format: cell-based, Trypanosoma brucei; conditions: 24 h treatment; for Mislocalization (% of No. of cells) of aldolase: cultures with 50% of the growth rate of DMSO control
Experimental: BSF 90-13 cells with genomically integrated PEX11-GFP were induced with 5 ng/ml of tetracycline and cultured overnight to initiate stable expression of PEX11-GFP. BSF427- and PEX11-GFP–expressing cells were treated for 24 h with 100 μM, 50 and 25 μM of each of the inhibitor, and DMSO was used as control. Compound-treated cultures with growth rates of about 50% compared to the DMSO control were harvested and stained for immunofluorescence and statistical analysis. Cells were fixed with 4% paraformaldehyde in PBS containing 250 mM sucrose for 20 min. Fixed cells were immobilized on adhesive slide (StarFrost®) pre-coated with 10% (v/v) of poly-L-lysine (Sigma-Aldrich®) in water after 1-h incubation at RT. Cells were permeabilized with 0.1% (v/v) Triton X-100 in PBS (pH7.4) for 15 min and blocked in buffer D [PBS supplemented with 1% (w/v) BSA and 0.25% (v/v) Tween 20] for 1 h. Anti-TbAldolase primary antibody was used at 1:500 dilution in buffer D for 1.5 h incubation. After five washes in PBS for 30 min, samples were treated with Goat anti-rabbit secondary antibody (1:200, v/v, Alexa Fluor™ 594). Samples were washed, dried, and mounted with Mowiol containing 4′,6-diamidino-2-phenylindole (DAPI). Immuno-stained cells were visualized with Zeiss Elyra microscopy. Pictures of stack 3 (of 5), rotation 1 (of 3), and phase 5 (of 5) were chosen for all control and compound-treated samples.

[6] = test system: PEX11-GFP–expressing BSF cells; experiment: Immunofluorescence of PEX11-GFP–expressing BSF cells; format: cell-based, Trypanosoma brucei; conditions: 24 h treatment
Experimental: as §2
BSF 90-13 cells with genomically integrated PEX11-GFP were induced with 5 ng/ml of tetracycline and cultured overnight to initiate stable expression of PEX11-GFP. BSF427- and PEX11-GFP–expressing cells were treated for 24 h with 100 μM, 50 and 25 μM of each of the inhibitor, and DMSO was used as control. Compound-treated cultures with growth rates of about 50% compared to the DMSO control were harvested and stained for immunofluorescence and statistical analysis. […]

[7] = ref ChemBridge, cited from earlier work; for Hacc (hydrogen bond acceptor) / Hdon (hydrogen bond donor): provided by the compound library supplier; for LogSw: supplier data
[8] = Cytotoxicity test on HepG2 cells; conditions: human, HepG2 cells, Human cell cytotoxicity (EC50), HepG2, serial dilutions of up to 200 µM
[9] = test system: BSF427 cells; experiment: Digitonin fractionation of compound-treated BSF cells; conditions: 24 h treatment; 0.025 μg of digitonin/μg of total protein
Experimental: Pellets were resuspended in 420 μl of homogenization buffer and distributed evenly into four tubes each with 100 μl (4 μg protein). […] The mixture was incubated for 2 min at 37°C, vortexed for 10 s, and centrifuged (16,000 g) at 4°C for 15 min. 100 μl from the supernatant (solubilized fractions) was taken for Western blot analysis. Remaining pellet fractions were washed by adding homogenization buffer up to 125 μl and centrifuged again, supernatants were discarded, and pellets were resuspended in 100 μl for Western blotting.

[10] = test system: TbPEX19-His; experiment: NMR saturation transfer difference (STD) with TbPEX19-His; format: binding, Trypanosoma brucei; conditions: 10 μM protein, 300 µM ligand
Experimental: as §1

[11] = test system: HepG2 cells; experiment: Cytotoxicity test on HepG2 cells; conditions: read-out: Human cell cytotoxicity (EC50); HepG2, serial dilutions of up to 200 µM
[12] = molecular target: Biotin-TbPEX5pep; experiment: ELISA binding of GST-TbPEX14 and Biotin-TbPEX5pep; set-up: species or system Trypanosoma brucei; conditions: read-out: KD of GST-TbPEX14 (residue1-84) and Biotin-TbPEX5pep
Experimental: ELISA with TbPEX14–TbPEX5 was used as an independent assay to confirm compound specificity by examining the compound activity on TbPEX14–TbPEX5 interaction. TbPEX14–TbPEX5 assays were performed similarly with following changes. GST-TbPEX14_1-84 was coated, and biotinylated TbPEX5 peptide (Biotin-Aca-Aca-[…]) was used as analyte to a final concentration of 500 nM. Bound PEX5 was detected using streptavidin-conjugated alkaline phosphatase [1:2,000 v/v in PBS, 0.05% v/v Tween 20 (pH 7.4), buffer D, Promega] and p-nitrophenylphosphate (PNPP, Thermo Fisher Scientific) as a substrate, reactions stopped with 3 M NaOH and absorbance read at 405 nm.

T1 sequence (P08515 whole entry): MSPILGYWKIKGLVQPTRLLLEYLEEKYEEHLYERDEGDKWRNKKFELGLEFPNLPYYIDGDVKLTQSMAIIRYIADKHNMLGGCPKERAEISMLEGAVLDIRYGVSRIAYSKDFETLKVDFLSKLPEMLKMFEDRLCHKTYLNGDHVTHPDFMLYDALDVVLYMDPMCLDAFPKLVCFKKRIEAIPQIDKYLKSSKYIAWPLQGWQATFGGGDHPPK
Sequence of TbPEX3–TbPEX19 interaction (Q383Q3 entry or part of it, other chains not shown): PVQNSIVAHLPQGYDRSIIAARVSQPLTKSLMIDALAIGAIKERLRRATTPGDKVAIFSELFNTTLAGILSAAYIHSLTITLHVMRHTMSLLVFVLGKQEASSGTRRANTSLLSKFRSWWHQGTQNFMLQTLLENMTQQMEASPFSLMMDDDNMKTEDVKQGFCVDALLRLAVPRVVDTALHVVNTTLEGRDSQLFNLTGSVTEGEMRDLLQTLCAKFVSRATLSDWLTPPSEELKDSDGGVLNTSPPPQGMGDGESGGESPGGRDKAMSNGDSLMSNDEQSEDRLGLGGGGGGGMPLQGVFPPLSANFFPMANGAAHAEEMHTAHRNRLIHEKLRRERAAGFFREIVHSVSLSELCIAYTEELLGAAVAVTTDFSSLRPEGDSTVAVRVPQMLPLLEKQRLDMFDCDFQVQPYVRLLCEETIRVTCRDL

Molecule | IC50 [1] | STD NMR effect with GST-TbPEX3 [2] | Target protein (NMR analysis) [2] | STD NMR effect with GST-His control [3] | EC50 [4] | EC50 ([4]; Trypanosoma brucei, 72 h) | Aldolase labeling phenotype (in words) [5] | Mislocalization (% of No. of cells) of aldolase [5] | PEX11-GFP and matrix protein localization (in words) [6] | Hacc (hydrogen bond acceptor) [7] | Hdon (hydrogen bond donor) [7] | LogSw [7] | EC50 [8] | Release of glycosomal matrix proteins (HK, gGAPDH) on digitonin fractionation (in words) [9] | STD NMR effect with TbPEX19-His [10] | EC50 [11] | Kd [12]
COCC1CCCN(S(=O)(=O)N2CCCN(Cc3cccc(F)c3)CC2)C1 (centres unmarked) [Compound 2, 1-(3-fluorobenzyl)-4-{[3-(methoxymethyl)piperidin-1-yl]sulfonyl}-1,4-diazepane] | 37.5 µM | significant STD effects; also recorded: strong STD signal | TbPEX3 | not to GST-His; also recorded: not with TbPEX19 or GST | 27 µM | 26.9 µM | mislocalization of aldolase to the cytosol | ~21% and 21.2% | partly mislocalized to cytosol | 4 | 0 | -1.59 | > 200 µM | mislocalization of the matrix protein into cytosol |  |  | 
CCn1c2c(c3cc(C(=O)N4CCc5[nH]cnc5C4c4cccnc4)ccc31)CCCC2=O (centres unmarked) [Compound 3, 9-ethyl-6-[(4-pyridin-3-yl-1,4,6,7-tetrahydro-5H-imidazo[4,5-c]pyridin-5-yl)carbonyl]-2,3,4,9-tetrahydro-1H-carbazol-1-one] | 14.3 µM | strong line-broadening |  | weak line-broadening |  | 38 µM | partial mislocalization of aldolase to the cytosol | ~27% and 27.5% | mislocalization of both PEX11 and matrix proteins | 4 | 1 | -1.77 | 84.4 µM | mislocalization of the matrix protein into cytosol | notable STD signal | 84 µM | 
Cn1ccnc1CNCCOc1cccc2cccnc12 [Compound 4, N-[(1-methyl-1H-imidazol-2-yl)methyl]-2-(quinolin-8-yloxy)ethanamine] | 0.5 µM | significant STD effects; also recorded: strong STD signal | TbPEX3 | not to GST-His; also recorded: not with TbPEX19 or GST | 71 µM | 70.7 µM | patches of stained aldolase | ~14% and 14.3% and ~15% |  | 4 | 1 | -1.26 | > 200 µM |  |  |  | 
GST-TbPEX14: GST-tagged TbPEX14 residues 1-84 (protein, left off: GST, end not stated, kept) MSLLLSGVVDDGKSKPEVEHTHSEREKRVSNAVEFLLDSRVRRTPTSSKVHFLKSKGLSAEEICEAFTKVGQPKTLNEIKRILS |  |  |  |  |  |  |  |  |  |  |  |  |  |  |  |  | 0.52 ± 0.13 µM
